According to patent US11925650B2, “Antibacterial chemical compound, its manufacturing method and its use thereof” (National Taiwan University, priority 2022, dated 2024):
Like-named read-outs stand apart in the source and are kept apart here.

Assays:
[1] = system: intracellular Salmonella in RAW264.7 cells; test: Intracellular Salmonella viability with autophagy inhibitor 3-MA (HCA); type: cell-based, S. typhimurium
Method: FIG. 7. Infected RAW264.7 cells treated with 10 mM of 3-MA for 1 h followed by 0.5 μM of SW14 or mock (DMSO) treatment for 24 hours.
Autophagy was originally characterized as a cellular response to stress, but has been considered to be a defense mechanism to combat host cell infection by intracellular Salmonella. Therefore, to evaluated the role of autophagy in SW14's anti-intracellular Salmonella activity, infected cells are treated with 3-MA, an autophagy inhibitor to block cellular autophagy then followed by treatment with SW14 for 24 h. […] Compared to mock-treated cells, the viability of intracellular Salmonella in cells treated with SW14 or the combination of 3-MA and SW14 were 45% and 36.8%, respectively.

[2] = system: Salmonella Typhimurium NL08.10; test: MIC of antibiotics, multidrug-resistant isolate NL08.10; type: cell-based; settings: Table 5; for MIC: Salmonella enterica, TYPHIMURIUM
[3] = system: Salmonella Typhimurium ATCC 14028; test: MIC of antibiotics, strain ATCC 14028; type: cell-based; settings: for MIC: Salmonella enterica
[4] = system: Salmonella Typhimurium 0911R; test: MIC of antibiotics, multidrug-resistant isolate 0911R; type: cell-based; settings: Table 5; for MIC: Salmonella enterica, TYPHIMURIUM
[5] = system: Salmonella Typhimurium SA10; test: MIC of antibiotics, ciprofloxacin-resistant strain SA10; type: cell-based; settings: Table 6; for MIC: Salmonella enterica, TYPHIMURIUM
[6] = system: Salmonella Typhimurium SB10; test: MIC of antibiotics, ciprofloxacin-resistant strain SB10; type: cell-based; settings: Table 6; for MIC: Salmonella enterica, TYPHIMURIUM
[7] = system: intracellular Salmonella in RAW264.7 cells; test: Intracellular Salmonella with cefixime or ciprofloxacin alone or combined with SW14 (HCA); type: cell-based; settings: 24 hours
Method: FIG. 4. Salmonella-infected RAW264.7 cells treated with (A) 0.25, 0.5, 1, 2, and 4 mg/L of cefixime (CFM) and (B) 0.03, 0.06, 0.125, 0.25, and 0.5 mg/L of ciprofloxacin (CIP) alone or in combination with 0.5 μM SW14. After 24 hours, the relative numbers of intracellular bacteria were determined using HCA and the results are expressed as relative fluorescence units (RFU).

[8] = system: ROS levels in infected macrophages; test: ROS production in Salmonella-infected RAW264.7 cells (H2DCFDA); type: cell-based; settings: 1 hour; SW14 at concentrations up to 8 μM
Method: FIG. 10. […] The viabilities of intracellular Salmonella in RAW264.7 cells treated with SW14 with/without the ROS scavengers N-acetyl-cysteine (NAC; 10 mM) or glutathione (GSH; 10 mM) are assessed using HCA. […] Salmonella-infected RAW264.7 cells are loaded with 25 μM H2DCFDA for 45 min followed by treatment with SW14 or PMA at various concentrations. […] S. Typhimurium ATCC 14028 is treated with H2O2 alone or in combination with SW14 (0.5 μM) in (C) LB or (D) LPM for 1 hour followed by evaluation by the CFU assay to determine bacterial viability.

RAW264.7 = test: Cytotoxicity in RAW264.7 cells (HCA, MTT cell viability assay); type: cell-based; settings: Mus musculus, RAW264.7, read-out: IC50 (μM) RAW264.7
Method: The cell viability was evaluated using HCA and an MTT cell viability assay, and the data are expressed as a percentage relative to the untreated control and are presented as the mean±SD (n=3 per group).

[9] = system: S. Typhimurium within macrophages; test: Intracellular Salmonella viability with ROS scavengers (HCA); type: cell-based, Salmonella Typhimurium; settings: NAC 10 mM or GSH 10 mM
Method: (§1) FIG. 10. SW14 sensitizing outer membrane-compromised S. typhimurium to oxidative stress. (A) ROS scavengers reversed the suppressive effects of SW14 on intracellular S. typhimurium. The viabilities of intracellular Salmonella in RAW264.7 cells treated with SW14 with/without the ROS scavengers N-acetyl-cysteine (NAC; 10 mM) or glutathione (GSH; 10 mM) are assessed using HCA. […] Salmonella-infected RAW264.7 cells are loaded with 25 μM H2DCFDA for 45 min followed by treatment with SW14 or PMA at various concentrations. […] S. Typhimurium ATCC 14028 is treated with H2O2 alone or in combination with SW14 (0.5 μM) in (C) LB or (D) LPM for 1 hour followed by evaluation by the CFU assay to determine bacterial viability.
Oxidative stress is another innate defense system in host cells that controls intracellular Salmonella infection. In FIG. 10(A), the suppressive effects of SW14 against S. Typhimurium within macrophages are reversed in the presence of two ROS scavengers, N-acetyl cysteine (NAC) and glutathione (GSH).

[10] = system: intracellular Salmonella in RAW264.7 cells; test: Intracellular bacteria survival, colony-forming unit assay; settings: sub-micromolar concentrations, gentamicin 20 mg/L, 24 h
Method: The intracellular bacteria survival was assessed using HCA and a CFU assay, and the data are expressed as a percentage relative to the untreated control and are presented as the mean±SD (n=3 per group).

[11] = system: intracellular Salmonella in Atg7 knockdown RAW264.7 cells; test: Intracellular bacterial survival in RAW264.7 cells with Atg7 knockdown (HCA); type: cell-based, S. typhimurium; settings: shRNA Atg7 knockdown RAW264.7 cells, SW14 0.3 and 1 μM, 24 hours
Source text: FIG. 8. RAW264.7 cells transfected with a plasmid to express shRNA targeting Atg7 (shATG7). The levels of the Atg7 protein in the stable transfectants as determined by immunoblotting. Bands for Atg7 were quantified by densitometry and normalized to those of β-actin. Percentages represent the relative expression levels of Atg7 in the shATG7 transfectants compared to the vector transfectants.
FIG. 9. Intracellular bacterial survival in SW14-treated RAW264.7 cells with shRNA-mediated knockdown of Atg7 expression. RAW264.7 cells were transfected with the empty vector (Vec) and infected with S. typhimurium followed by treatment with 0, 0.3, and 1 μM of SW14 and […] gentamicin for 24 hours. The numbers of surviving intracellular bacteria are determined by HCA and the results are expressed as a percentage of the control group. Data shown are the means; error bars represent the SD (n=3). ns: non-significant, P>0.05; *P<0.05 for the differences between the drug-treated groups and their respective control groups.

S. Typhimurium 14028 = test: Anti-intracellular Salmonella activity in infected RAW264.7 cells (HCA); type: cell-based, Salmonella Typhimurium
S. typhimurium = test: Bacterial growth in medium (OD600); type: cell-based; settings: LB medium and macrophage culture medium, concentrations up to 64 μM, 24 hours
Method: FIG. 6. The growth of S. typhimurium in LB medium, cell culture medium (CCM), or LPM medium containing 0, 0.5, and 64 μM of SW14 monitored by measuring the OD600 of each bacterial culture at designated times for a total of 24 h.

[12] = system: S. Typhimurium ATCC 14028; test: Bacterial susceptibility to H2O2 (CFU assay); type: cell-based, Salmonella Typhimurium; settings: 1 hour
Method: as §1
Next, the effects of SW14 on bacterial resistance to ROS are investigated.

[13] = system: multidrug-resistant S. typhimurium NL08.10 and 0911R; settings: SW14 0.3-10 μM with gentamicin, 24 h
Method: (§2) FIG. 5. RAW264.7 cells infected with (A) multidrug-resistant strains of S. Typhimurium ATCC 14028, NL08., and 100911R or (B) ciprofloxacin-resistant strains of S. typhimurium ATCC 14028, SA10, and SB10 followed by treatment with 0, 0.3, 1, 3, and 10 μM of SW14 combined with […] gentamicin for 24 h. The relative numbers of intracellular bacteria were determined using HCA and the results are expressed as relative fluorescence units (RFU).

[14] = system: ciprofloxacin-resistant strain SA10 and SB10; settings: SA10 and SB10, SW14 0.3-10 μM with gentamicin, 24 h
Method: as §2
Then extended the investigation to S. typhimurium isolates with resistance to ciprofloxacin.

[15] = CAMH medium, read-out: MIC S. Typhimurium ATCC 14028, CAMH
[16] = LB medium, read-out: MIC S. Typhimurium ATCC 14028, LB
[17] = Table 5, read-out: MIC ATCC 14028
[18] = acidic LPM medium, read-out: MIC S. Typhimurium ATCC 14028, LPM
[19] = Table 6, read-out: MIC ATCC 14028

## Cn1cnc(=N)c2[nH]cnc21 [3-MA, reference compound]
[1]; 10 mM 3-MA
  relative number of intracellular bacteria in 3-MA-treated cells: increased significantly

## CC1(C)S[C@@H]2[C@H](NC(=O)[C@H](N)c3ccccc3)C(=O)N2[C@H]1C(=O)O [Ampicillin]
[2]
  MIC: > 64 µg/mL
[3]; [15]
  MIC: 4 µg/mL
[3]; [16]
  MIC: 4 µg/mL
[3]; [17]
  MIC: 16 µg/mL
[3]; [18]
  MIC: 1 µg/mL
[4]
  MIC: > 64 µg/mL

## O=C(N[C@H](CO)[C@H](O)c1ccc([N+](=O)[O-])cc1)C(Cl)Cl [Chloramphenicol]
[2]
  MIC: 32 µg/mL
[3]; [17]
  MIC: 16 µg/mL
[4]
  MIC: 32 µg/mL

## O=C(O)c1cn(C2CC2)c2cc(N3CCNCC3)c(F)cc2c1=O [Ciprofloxacin, ciprofloxacin]
[5]
  MIC: 4 µg/mL
[6]
  MIC: 4 µg/mL
[3]; [19]
  MIC: < 0.125 µg/mL
[7]; alone or combined with 0.5 μM SW14
  survival of intracellular Salmonella in macrophages, antibiotic treatment: inhibited the survival of intracellular Salmonella in macrophages in a dose-dependent manner

## CC1COc2c(N3CCN(C)CC3)c(F)cc3c(=O)c(C(=O)O)cn1c23 (stereo not shown) [Ofloxacin]
[5]
  MIC: 8 µg/mL
[6]
  MIC: 8 µg/mL
[3]; [19]
  MIC: < 0.125 µg/mL

## CCCCCCCCCCCCCC(=O)O[C@@H]1[C@@H](C)[C@@]2(O)[C@@H](C=C(CO)C[C@]3(O)C(=O)C(C)=C[C@@H]23)[C@@H]2C(C)(C)[C@]12OC(C)=O [PMA, reference compound]
[8]
  ROS levels (H2DCFDA signal) in infected macrophages: significantly elevated ROS levels

## CO[C@H]1/C=C/O[C@@]2(C)Oc3c(C)c(O)c4c(O)c(c(/C=N/N5CCN(C)CC5)c(O)c4c3C2=O)NC(=O)/C(C)=C\C=C\[C@H](C)[C@H](O)[C@@H](C)[C@@H](O)[C@@H](C)[C@H](OC(C)=O)[C@@H]1C [Rifampin]
[3]; [15]
  MIC: 16 µg/mL
[3]; [16]
  MIC: 16 µg/mL
[3]; [18]
  MIC: 4 µg/mL

## Clc1ccc2c(c1)C(NCCN1CCNCC1)=Nc1ccccc1O2 [SW14, 2-chloro-N-(2-(piperazin-1-yl)ethyl)dibenzo[b,f][1,4]oxazepin-11-amine]
RAW264.7
  IC50: 28.7 µM
[9]
  suppressive effects against S. Typhimurium within macrophages in presence of ROS scavengers: reversed
[10]
  effect on viability of intracellular Salmonella (CFU assay): potent suppressive effect
[1]; 10 mM 3-MA 1 h, then 0.5 μM SW14 24 hours
  viability of intracellular Salmonella compared to mock-treated cells, combination of 3-MA and SW14: 36.8%
[1]; Salmonella, RAW264.7, 24 h, read-out: viability of intracellular Salmonella compared to mock-treated cells
  viability at 0.5 µM: 45%
[11]
  susceptibility of intracellular Salmonella to SW14 after knockdown of Atg7: more susceptible
S. Typhimurium 14028; IC50 RAW264.7 / EC50 S. Typhimurium 14028
  Selectivity ratio (IC50/EC50): 80.6
S. Typhimurium 14028; Salmonella enterica, TYPHIMURIUM, RAW264.7, read-out: EC50 (μM) S. Typhimurium 14028, intracellular Salmonella in infected RAW264.7 cells
  EC50: 0.5 µM
S. Typhimurium 14028; read-out: EC50 (μM) S. Typhimurium 14028, intracellular Salmonella in infected RAW264.7 cells
  EC50: 0.4 µM
S. typhimurium
  inhibitory effect on growth of bacteria in medium: did not show significant inhibitory effects
[12]; 0.5 μM SW14, LB broth
  susceptibility of S. typhimurium to H2O2 after SW14 treatment, LB broth: not in LB broth
[12]; 0.5 μM SW14, LPM medium
  susceptibility of S. typhimurium to H2O2 after SW14 treatment, LPM medium: significantly increasing
[13]
  intracellular replication of multidrug-resistant S. typhimurium isolates: remained susceptible
[14]
  intracellular proliferation of ciprofloxacin-resistant isolates: still highly sensitive
[7]; 0.5 μM SW14 combined with CFM or CIP
  enhancement of antibiotic suppression of intracellular Salmonella: can enhance the suppression caused by these antibiotics
[8]
  ROS levels (H2DCFDA signal) in infected macrophages: did not observe any significant change

## [H]/N=C(/N)N[C@H]1[C@H](O)[C@@H](O)[C@H](O[C@@H]2O[C@@H](C)[C@](O)(C=O)[C@H]2O[C@@H]2O[C@@H](CO)[C@H](O)[C@@H](O)[C@@H]2NC)[C@@H](N/C(N)=N\[H])[C@@H]1O [Streptomycin]
[2]
  MIC: > 64 µg/mL
[3]; [17]
  MIC: 32 µg/mL
[4]
  MIC: > 64 µg/mL

## CN(C)[C@@H]1C(O)=C(C(N)=O)C(=O)[C@@]2(O)C(O)=C3C(=O)c4c(O)cccc4[C@@](C)(O)[C@H]3C[C@@H]12 [Tetracycline]
[2]
  MIC: > 64 µg/mL
[3]; [17]
  MIC: 8 µg/mL
[4]
  MIC: > 64 µg/mL

## CN[C@H](CC(C)C)C(=O)N[C@H]1C(=O)N[C@@H](CC(N)=O)C(=O)N[C@H]2C(=O)N[C@H]3C(=O)N[C@H](C(=O)N[C@H](C(=O)O)c4cc(O)cc(O)c4-c4cc3ccc4O)[C@H](O)c3ccc(c(Cl)c3)Oc3cc2cc(c3O[C@@H]2O[C@H](CO)[C@@H](O)[C@H](O)[C@H]2O[C@H]2C[C@](C)(N)[C@H](O)[C@H](C)O2)Oc2ccc(cc2Cl)[C@H]1O [Vancomycin]
[3]; [15]
  MIC: 2050 µg/mL
[3]; [16]
  MIC: 512 µg/mL
[3]; [18]
  MIC: 128 µg/mL

## Gentamycin
[5]
  MIC SA10: 0.5 µg/mL
[6]
  MIC SB10: 1 µg/mL
[2]
  MIC NL08.10: 2 µg/mL
[3]; Table 5
  MIC ATCC 14028: 2 µg/mL
[3]; Table 6
  MIC ATCC 14028: 2 µg/mL
[4]
  MIC 0911R: 2 µg/mL
